From patent US5872126A, “Methods and compositions for treating preterm labor” (priority 1997, dated 1999)
Values joined by “and” are separate entries in the source; they are usually repeats but may differ in a detail not shown here. Equal values may be shown once. “Also recorded” adds a separate entry of the source.

What was measured:
Assay type in all cases: in vivo, Sprague-Dawley rat
[1] = system: parturition in the rat; experiment: Parturition with test compound and progesterone antagonist RU-486 (Example 3); details: test compound 20 mg/kg/day (Group 3)
Procedure: In order to determine if the effects in the experiments conducted in Examples 1 and 2 were due to decreased progesterone catabolism associated with inhibition of 5α-reductase by the 5α-reductase type 1 inhibitor 3-oxo-4-aza-4,7β-dimethyl-16β-(4-chlorophenoxy)-5α-androstane ("test compound"), the following study was performed with the 5α-reductase inhibitor 3-oxo-4-aza-4,7β-dimethyl-16β-(4-chlorophenoxy)-5α-androstane and the progesterone antagonist RU-486.
Fifty-six pregnant female Sprague-Dawley rats (Charles River Laboratories, Raleigh, N.C.), approximately 10.5 weeks old weighing from 212 to 319 grams were employed in the study. They were fed and housed as described in EXAMPLE 1. The females were assigned to the following groups based on a weight independent random allocation scheme:
Control (Control article)
test compound @ 20 mg/kg/day
A dose of 10 mg/kg off RU-486 was selected based on the studies of Abdellilah et al., Progesterone and Mifepristone modify principally the response of circular myometrium to oxytocin in preparturient rats: comparison with response to acetylcholine and to calcium J. Pharmacol. and Exp. Therp.
The drugs were administered by oral gavage. The control article and vehicle consisted of 0.5% methylcellulose in deionized water with 0.02% sodium lauryl sulfate (SLS) and were prepared on a weekly basis and refrigerated when not in use. The test compound formulation (4 mg/mL, in vehicle) was prepared on a weekly basis and was refrigerated when not in use. The RU-486 formulation (2 mg base compound/mL, in 0.5% methylcellulose in deionized water) was prepared on a daily basis.

[2] = system: parturition in the rat; experiment: Effect of test compound on parturition in the rat, dosed GD 6 through LD 20 (Example 1); details: for Mean Length of Gestation ± SD: oral gavage
Text: Effect of the 5α-reductase type 1 inhibitor 3-oxo-4-aza-4,7β-dimethyl-16β-(4-chlorophenoxy)-5α-androstane on parturition in the rat
Fifty female Sprague-Dawley rats (Charles River Laboratories, Raleigh, N.C.) approximately 11 weeks old, weighing from 211 to 297 grams were assigned to the present study. The female rats were housed singly in stainless steel hanging cages prior to and after cohabitation with a male of the same strain. During cohabitation, females were caged with untreated males of the same strain in a ratio of 1 female: 1 male. On Gestational Day (GD) 15 to 17, females were transferred to individual clear polycarbonate boxes containing Beta-Chip bedding in preparation for delivery and in which they remained with their litters throughout the lactation period. Room temperature was maintained between 19.4° and 25.0° C.; room humidity was maintained between 40 and 60% relative humidity, and room lights were set for alternating 12-hour periods of light and dark throughout the study. All rats had free access to PMI Certified Rodent Diet #5002 and tap water throughout the study.
Vehicle consisted of 0.5% methylcellulose in deionized water with […] sodium laurel sulfate (SLS) and was prepared on a weekly basis and refrigerated when not in use.
The high dose formulation of 3-oxo-4-aza-4,7β-dimethyl-16β-(4-chlorophenoxy)-5α-androstane ("test compound") (4 mg/mL, in vehicle) was prepared on a weekly basis and was refrigerated when not in use. All lower does formulations (0.5, 1.0 and 2.0 mg/mL) were prepared on a daily basis by diluting the high dose preparation with the vehicle. Ten females were randomly allocated to each of the following treatment groups: Control, 2.5 mg test compound/kg/day, 5.0 mg test compound/kg/day, 10 mg test compound/kg/day, 20 mg test compound/kg/day. The formulation was administered by oral gavage in a dosage volume of 5 ml/kg based on the most recent body weight. Females were treated once daily with the dose above from GD 6 through LD (lactation day) 20.
Each female was housed with one untreated male of the same strain. […] The day of finding the plugs and/or sperm was considered GD 0.
From GD21 until the completion of delivery (LD 0), each pregnant female was observed on four occasions throughout the day. On GD 24, females were observed twice at 7:30 am and 10:00 am. The onset and completion of delivery and any signs of difficulty in parturition were noted. Those females that had completed delivery at the first observation of the day were assigned a whole day value for the length of gestation (e.g. 21.0 or 22.0 days). Those females that completed delivery during the workday were assigned a half day value (e.g. 21.5 or 22.5 days).

[3] = system: parturition in the rat; experiment: Parturition after termination of drug treatment on GD 17, 19 or 20 (Example 2); details: 20 mg/kg/day; for Mean Length of Gestation ± SD: in days (unit assumed)
Text: In order to determine if termination of drug treatment with the 5α-reductase type 1 inhibitor 3-oxo-4-aza-4,7β-dimethyl-16β-(4-chlorophenoxy)-5α-androstane ("test compound") on GD 17, 19 or 20 would allow the 3-oxo-4-aza-4,7β-dimethyl-16β-(4-chlorophenoxy)-5α-androstane-treated pregnant females to initiate and complete parturition, Sprague-Dawley rats (Charles River Laboratories, Raleigh, N.C.) were approximately ten weeks of age and weighted 223 to 276 grams on Gestation Day 0 (GD 0, the day of finding copulatory plugs). The design of the study is as described below. All animals were housed and fed as described in Example 1, with the exception of a 1 hour transient electrical failure, during which power outage dim illumination was provided by emergency backup lighting.
A dose of 20 mg/kg/day of the test compound was given once daily by oral gavage to the three treatment groups of 10 mated females each, designated by the treatment interval (GD 6-17, GD 6-19, and GD 6-20), at a dose volume of 5 mL/kg. (GD 6-17 received treatment from Gestational Day 6 through 17, etc.) An additional group of 10 females similarly received the vehicle (0.5% methylcellulose in deionized water with 0.02% sodium lauryl sulfate (SLS)) on GD 6-20 and served as the control.

C[C@H]1C[C@H]2N(C)C(=O)CC[C@]2(C)[C@H]2CC[C@]3(C)C[C@@H](Oc4ccc(Cl)cc4)C[C@H]3[C@H]12 [test compound, 3-oxo-4-aza-4,7β-dimethyl-16β-(4-chlorophenoxy)-5α-androstane]
number of females completing parturition ([1]; delivery day GD 22.0): 1 | number of females completing parturition ([1]; delivery day GD 23.0): 2 | number of females completing parturition ([1]; delivery day GD 24): 3 | Sacrificed Early (on GD 24 due to failure to initiate or complete parturition) [1]: 7 | females that failed to initiate or complete parturition [1]: drug related increase in females that failed to initiate or complete parturition | Mean Length of Gestation ± SD ([1]; only females completing delivery, 20 mg/kg/day): 23.3 days and 23.3 ± 0.8 days | number of females completing parturition ([2]; 2.5 mg/kg/day, delivery day GD 22.0): 2 | number of females completing parturition ([2]; 2.5 mg/kg/day, delivery day GD 22.5): 7 | Mean Length of Gestation ± SD ([2]; 2.5 mg/kg/day): 22.8 ± 0.4 days | Sacrificed GD 24 due to failure to initiate or complete parturition ([2]; 5.0 mg/kg/day): 3 | number of females completing parturition ([2]; 5.0 mg/kg/day, delivery day GD 22.0): 2 | number of females completing parturition ([2]; 5.0 mg/kg/day, delivery day GD 22.5): 2 | number of females completing parturition ([2]; 5.0 mg/kg/day, delivery day GD 23.0): 2 | Mean Length of Gestation ± SD ([2]; 5.0 mg/kg/day): 22.7 ± 0.7 days | Sacrificed GD 24 due to failure to initiate or complete parturition ([2]; 10.0 mg/kg/day): 3 | number of females completing parturition ([2]; 10.0 mg/kg/day, delivery day GD 22.5): 2 | number of females completing parturition ([2]; 10.0 mg/kg/day, delivery day GD 23.0): 3 | Mean Length of Gestation ± SD ([2]; 10.0 mg/kg/day): 22.8 ± 0.3 days | Sacrificed GD 24 due to failure to initiate or complete parturition ([2]; 20 mg/kg/day): 6 | number of females completing parturition ([2]; 20 mg/kg/day, delivery day GD 22.5): 1 | number of females completing parturition ([2]; 20 mg/kg/day, delivery day GD 23.0): 3 | Mean Length of Gestation ± SD ([2]; 20 mg/kg/day): 22.9 ± 0.2 days | failure to initiate or complete parturition ([2]; 5, 10 and 20 mg/kg/day): treatment related increases in the failure to initiate or complete parturition; also recorded: drug-related increases in the incidence of females that failed to initiate or complete parturition | length of gestation ([2]; all drug-treated groups, 2.5-20 mg/kg/day): treatment-related increases in the length of gestation | length of gestation relative to controls ([3]; all dosing intervals): increases in the length of gestation | number of pregnant females completing parturition ([3]; dosed GD 6-17, delivery day GD 22.0): 3 | number of pregnant females completing parturition ([3]; dosed GD 6-17, delivery day GD 22.5): 1 | number of pregnant females completing parturition ([3]; dosed GD 6-17, delivery day GD 23.0): 6 | Mean Length of Gestation ± SD ([3]; dosed GD 6-17): 22.6 ± 0.5 | Sacrificed GD 24 due to failure to initiate or complete parturition ([3]; dosed GD 6-19): 1 | pregnant females that failed to initiate or complete delivery (fraction) ([3]; dosed GD 6-19): 1/10 | number of pregnant females completing parturition ([3]; dosed GD 6-19, delivery day GD 22.0): 1 | number of pregnant females completing parturition ([3]; dosed GD 6-19, delivery day GD 22.5): 3 | number of pregnant females completing parturition ([3]; dosed GD 6-19, delivery day GD 23.0): 4 | number of pregnant females completing parturition ([3]; dosed GD 6-19, delivery day GD 23.5): 1 | Mean Length of Gestation ± SD ([3]; dosed GD 6-19): 22.8 ± 0.4 | Sacrificed GD 24 due to failure to initiate or complete parturition ([3]; dosed GD 6-20): 2 | pregnant females that failed to initiate or complete delivery (fraction) ([3]; dosed GD 6-20): 2/9 | number of pregnant females completing parturition ([3]; dosed GD 6-20, delivery day GD 23.0): 5 | number of pregnant females completing parturition ([3]; dosed GD 6-20, delivery day GD 24): 2 | Mean Length of Gestation ± SD ([3]; dosed GD 6-20): 23.3 ± 0.5
